From patent US20260365634A1, “HERBICIDAL PYRAZOLE COMPOUNDS” (SYNGENTA CROP PROTECTION AG, priority 2022, published 2026)

Assays:
Type in all cases: in vivo
Details in all cases: 250 g/ha, evaluated after 13 days
Setaria faberi (SETFA) [1] = assay: Post-emergence herbicidal glasshouse test
Protocol: (§1) Seeds of a variety of test species are sown in standard soil in pots Amaranthus palmeri (AMAPA), Amaranthus retoflexus (AMARE), Echinochloa crus-galli (ECHCG), Ipomoea hederacea (IPOHE), Setaria faberi (SETFA). After cultivation for one day (pre-emergence) or after 8 days cultivation (post-emergence) under controlled conditions in a glasshouse (at 24/16 °C, day/night; 14 hours light; 65% humidity), the plants are sprayed with an aqueous spray solution derived from the formulation of the technical active ingredient in acetone/water (50:50) solution containing 0.5% Tween 20 (polyoxyethelyene sorbitan monolaurate, CAS RN 9005-64-5). Compounds are applied at 250 g/ha unless otherwise stated. The test plants are then grown in a glasshouse under controlled conditions in a glasshouse (at 24/16 °C, day/night; 14 hours light; 65% humidity) and watered twice daily. After 13 days for pre and post-emergence, the test is evaluated for the percentage damage caused to the plant. The biological activities are shown in the following table on a five-point scale (5=81-100%; 4=61-80%; 3=41-60%; 2=21-40%; 1=0-20%).

[2] = test system: Amaranthus palmeri (AMAPA); assay: Post-emergence herbicidal glasshouse test
Protocol: as §1

[3] = test system: Ipomoea hederacea (IPOHE); assay: Post-emergence herbicidal glasshouse test
Protocol: as §1

[4] = test system: Echinochloa crus-galli (ECHCG); assay: Post-emergence herbicidal glasshouse test
Protocol: as §1

[5] = test system: Amaranthus retoflexus (AMARE); assay: Post-emergence herbicidal glasshouse test
Protocol: as §1

Setaria faberi (SETFA) [6] = assay: Pre-emergence herbicidal glasshouse test
Protocol: as §1

[7] = test system: Amaranthus palmeri (AMAPA); assay: Pre-emergence herbicidal glasshouse test
Protocol: as §1

[8] = test system: Ipomoea hederacea (IPOHE); assay: Pre-emergence herbicidal glasshouse test
Protocol: as §1

[9] = test system: Echinochloa crus-galli (ECHCG); assay: Pre-emergence herbicidal glasshouse test
Protocol: as §1

[10] = test system: Amaranthus retoflexus (AMARE); assay: Pre-emergence herbicidal glasshouse test
Protocol: as §1

CC(C)(C#N)CCCn1nc(C(F)(F)F)cc1Cc1ncc(Cl)cn1 [Compound 1.019]
1 (0-20%): percentage damage caused to the plant (five-point scale), SETFA (Setaria faberi (SETFA) [1]) | percentage damage caused to the plant (five-point scale), AMAPA [2] | percentage damage caused to the plant (five-point scale), IPOHE [3] | percentage damage caused to the plant (five-point scale), ECHCG [4] | percentage damage caused to the plant (five-point scale), AMARE [5] | percentage damage caused to the plant (five-point scale), SETFA (Setaria faberi (SETFA) [6]) | percentage damage caused to the plant (five-point scale), AMAPA [7] | percentage damage caused to the plant (five-point scale), IPOHE [8] | percentage damage caused to the plant (five-point scale), ECHCG [9] | percentage damage caused to the plant (five-point scale), AMARE [10]

C=CCn1nc(C(F)F)cc1Cc1ncc(Cl)cn1 [Compound 1.026]
1 (0-20%): percentage damage caused to the plant (five-point scale), SETFA (Setaria faberi (SETFA) [1]) | percentage damage caused to the plant (five-point scale), AMAPA [2] | percentage damage caused to the plant (five-point scale), IPOHE [3] | percentage damage caused to the plant (five-point scale), ECHCG [4] | percentage damage caused to the plant (five-point scale), AMARE [5] | percentage damage caused to the plant (five-point scale), SETFA (Setaria faberi (SETFA) [6]) | percentage damage caused to the plant (five-point scale), AMAPA [7] | percentage damage caused to the plant (five-point scale), IPOHE [8] | percentage damage caused to the plant (five-point scale), ECHCG [9] | percentage damage caused to the plant (five-point scale), AMARE [10]

FC(F)(Cl)c1cc(Cc2ncc(Cl)cn2)n(CCC2CC2)n1 [Compound 1.032]
4 (61-80%): percentage damage caused to the plant (five-point scale), IPOHE [3] | percentage damage caused to the plant (five-point scale), ECHCG [4]
5 (81-100%): percentage damage caused to the plant (five-point scale), SETFA (Setaria faberi (SETFA) [1]) | percentage damage caused to the plant (five-point scale), AMAPA [2] | percentage damage caused to the plant (five-point scale), AMARE [5] | percentage damage caused to the plant (five-point scale), SETFA (Setaria faberi (SETFA) [6]) | percentage damage caused to the plant (five-point scale), AMAPA [7] | percentage damage caused to the plant (five-point scale), IPOHE [8] | percentage damage caused to the plant (five-point scale), ECHCG [9] | percentage damage caused to the plant (five-point scale), AMARE [10]

CCSCCn1nc(C(F)F)cc1Cc1ncc(Cl)cn1 [Compound 1.030]
5 (81-100%): percentage damage caused to the plant (five-point scale), AMAPA [2] | percentage damage caused to the plant (five-point scale), IPOHE [3] | percentage damage caused to the plant (five-point scale), AMARE [5]
4 (61-80%): percentage damage caused to the plant (five-point scale), SETFA (Setaria faberi (SETFA) [1])
2 (21-40%): percentage damage caused to the plant (five-point scale), ECHCG [4]
1 (0-20%): percentage damage caused to the plant (five-point scale), SETFA (Setaria faberi (SETFA) [6]) | percentage damage caused to the plant (five-point scale), AMAPA [7] | percentage damage caused to the plant (five-point scale), IPOHE [8] | percentage damage caused to the plant (five-point scale), ECHCG [9] | percentage damage caused to the plant (five-point scale), AMARE [10]

FC(F)CCn1nc(C(F)(F)Cl)cc1Cc1ncc(Cl)cn1 [Compound 1.031]
4 (61-80%): percentage damage caused to the plant (five-point scale), SETFA (Setaria faberi (SETFA) [1]) | percentage damage caused to the plant (five-point scale), AMAPA [2] | percentage damage caused to the plant (five-point scale), IPOHE [3] | percentage damage caused to the plant (five-point scale), AMARE [5]
5 (81-100%): percentage damage caused to the plant (five-point scale), SETFA (Setaria faberi (SETFA) [6]) | percentage damage caused to the plant (five-point scale), AMAPA [7] | percentage damage caused to the plant (five-point scale), IPOHE [8] | percentage damage caused to the plant (five-point scale), ECHCG [9] | percentage damage caused to the plant (five-point scale), AMARE [10]
3 (41-60%): percentage damage caused to the plant (five-point scale), ECHCG [4]

CS(=O)(=O)CCn1nc(C(F)F)cc1Cc1ncc(Cl)cn1 [Compound 1.023]
2 (21-40%): percentage damage caused to the plant (five-point scale), AMAPA [2] | percentage damage caused to the plant (five-point scale), AMARE [5] | percentage damage caused to the plant (five-point scale), IPOHE [8]
3 (41-60%): percentage damage caused to the plant (five-point scale), IPOHE [3]
1 (0-20%): percentage damage caused to the plant (five-point scale), SETFA (Setaria faberi (SETFA) [1]) | percentage damage caused to the plant (five-point scale), ECHCG [4] | percentage damage caused to the plant (five-point scale), SETFA (Setaria faberi (SETFA) [6]) | percentage damage caused to the plant (five-point scale), AMAPA [7] | percentage damage caused to the plant (five-point scale), ECHCG [9] | percentage damage caused to the plant (five-point scale), AMARE [10]

FC(F)(F)c1cc(Cc2ncc(Cl)cn2)n(C2CCCC2)n1 [Compound 1.028]
1 (0-20%): percentage damage caused to the plant (five-point scale), IPOHE [8]
2 (21-40%): percentage damage caused to the plant (five-point scale), SETFA (Setaria faberi (SETFA) [1]) | percentage damage caused to the plant (five-point scale), AMAPA [2] | percentage damage caused to the plant (five-point scale), ECHCG [4] | percentage damage caused to the plant (five-point scale), ECHCG [9]
3 (41-60%): percentage damage caused to the plant (five-point scale), IPOHE [3]
4 (61-80%): percentage damage caused to the plant (five-point scale), AMARE [5]
5 (81-100%): percentage damage caused to the plant (five-point scale), SETFA (Setaria faberi (SETFA) [6]) | percentage damage caused to the plant (five-point scale), AMAPA [7] | percentage damage caused to the plant (five-point scale), AMARE [10]

N#CC1(Cn2nc(C(F)(F)F)cc2Cc2ncc(Cl)cn2)CC1 [Compound 1.022]
4 (61-80%): percentage damage caused to the plant (five-point scale), AMAPA [2] | percentage damage caused to the plant (five-point scale), IPOHE [3] | percentage damage caused to the plant (five-point scale), AMARE [5] | percentage damage caused to the plant (five-point scale), SETFA (Setaria faberi (SETFA) [6]) | percentage damage caused to the plant (five-point scale), AMAPA [7]
5 (81-100%): percentage damage caused to the plant (five-point scale), IPOHE [8] | percentage damage caused to the plant (five-point scale), AMARE [10]
3 (41-60%): percentage damage caused to the plant (five-point scale), ECHCG [9]
1 (0-20%): percentage damage caused to the plant (five-point scale), SETFA (Setaria faberi (SETFA) [1]) | percentage damage caused to the plant (five-point scale), ECHCG [4]

N#CC1(Cn2nc(C(F)F)cc2Cc2ccc(Cl)cc2)CC1 [Compound 1.027]
1 (0-20%): percentage damage caused to the plant (five-point scale), SETFA (Setaria faberi (SETFA) [1]) | percentage damage caused to the plant (five-point scale), AMAPA [2] | percentage damage caused to the plant (five-point scale), IPOHE [3] | percentage damage caused to the plant (five-point scale), ECHCG [4] | percentage damage caused to the plant (five-point scale), AMARE [5] | percentage damage caused to the plant (five-point scale), AMAPA [7] | percentage damage caused to the plant (five-point scale), ECHCG [9] | percentage damage caused to the plant (five-point scale), AMARE [10]
2 (21-40%): percentage damage caused to the plant (five-point scale), SETFA (Setaria faberi (SETFA) [6]) | percentage damage caused to the plant (five-point scale), IPOHE [8]

Fc1cc(Cl)cnc1Cc1cc(C(F)(F)F)nn1CCC(F)(F)F [Compound 1.018]
4 (61-80%): percentage damage caused to the plant (five-point scale), SETFA (Setaria faberi (SETFA) [1]) | percentage damage caused to the plant (five-point scale), AMAPA [2] | percentage damage caused to the plant (five-point scale), IPOHE [3] | percentage damage caused to the plant (five-point scale), ECHCG [4]
1 (0-20%): percentage damage caused to the plant (five-point scale), AMARE [5]
3 (41-60%): percentage damage caused to the plant (five-point scale), IPOHE [8]
5 (81-100%): percentage damage caused to the plant (five-point scale), SETFA (Setaria faberi (SETFA) [6]) | percentage damage caused to the plant (five-point scale), AMAPA [7] | percentage damage caused to the plant (five-point scale), ECHCG [9] | percentage damage caused to the plant (five-point scale), AMARE [10]

CCCCn1nc(C(F)F)cc1Cc1ncc(Cl)cc1F [Compound 1.013]
4 (61-80%): percentage damage caused to the plant (five-point scale), AMARE [10]
1 (0-20%): percentage damage caused to the plant (five-point scale), SETFA (Setaria faberi (SETFA) [1]) | percentage damage caused to the plant (five-point scale), ECHCG [4]
3 (41-60%): percentage damage caused to the plant (five-point scale), SETFA (Setaria faberi (SETFA) [6]) | percentage damage caused to the plant (five-point scale), AMAPA [7] | percentage damage caused to the plant (five-point scale), ECHCG [9]
2 (21-40%): percentage damage caused to the plant (five-point scale), AMAPA [2] | percentage damage caused to the plant (five-point scale), IPOHE [3] | percentage damage caused to the plant (five-point scale), AMARE [5] | percentage damage caused to the plant (five-point scale), IPOHE [8]

CCCCn1nc(C(F)(F)Cl)cc1Cc1ncc(Cl)cn1 [Compound 1.020, 2-[[2-butyl-5-[chloro(difluoro)methyl]pyrazol-3-yl]methyl]-5-chloro-pyrimidine]
2 (21-40%): percentage damage caused to the plant (five-point scale), IPOHE [3] | percentage damage caused to the plant (five-point scale), ECHCG [4] | percentage damage caused to the plant (five-point scale), IPOHE [8]
5 (81-100%): percentage damage caused to the plant (five-point scale), AMARE [5] | percentage damage caused to the plant (five-point scale), AMAPA [7] | percentage damage caused to the plant (five-point scale), AMARE [10]
4 (61-80%): percentage damage caused to the plant (five-point scale), AMAPA [2] | percentage damage caused to the plant (five-point scale), SETFA (Setaria faberi (SETFA) [6]) | percentage damage caused to the plant (five-point scale), ECHCG [9]
1 (0-20%): percentage damage caused to the plant (five-point scale), SETFA (Setaria faberi (SETFA) [1])

C=Cn1nc(C(F)F)cc1Cc1ncc(Cl)cn1 [Compound 1.037]
5 (81-100%): percentage damage caused to the plant (five-point scale), AMAPA [7] | percentage damage caused to the plant (five-point scale), AMARE [10]
2 (21-40%): percentage damage caused to the plant (five-point scale), SETFA (Setaria faberi (SETFA) [1]) | percentage damage caused to the plant (five-point scale), IPOHE [3] | percentage damage caused to the plant (five-point scale), ECHCG [4]
4 (61-80%): percentage damage caused to the plant (five-point scale), AMARE [5]
3 (41-60%): percentage damage caused to the plant (five-point scale), AMAPA [2] | percentage damage caused to the plant (five-point scale), IPOHE [8]
1 (0-20%): percentage damage caused to the plant (five-point scale), SETFA (Setaria faberi (SETFA) [6]) | percentage damage caused to the plant (five-point scale), ECHCG [9]
